Results: PMC2803041 (Nature, 2009)
pEC50: −log10 of the molar value.

Legend:
His-PYR1 with GST-HAB1 = target: T1, His-PYR1 with GST-HAB1 (Arabidopsis thaliana, UniProt O49686); assay: in vitro reconstitution, radiometric kinase assay; assay type: biochemical; details: HAB1 in place of ABI1
T1 sequence (O49686 1-191): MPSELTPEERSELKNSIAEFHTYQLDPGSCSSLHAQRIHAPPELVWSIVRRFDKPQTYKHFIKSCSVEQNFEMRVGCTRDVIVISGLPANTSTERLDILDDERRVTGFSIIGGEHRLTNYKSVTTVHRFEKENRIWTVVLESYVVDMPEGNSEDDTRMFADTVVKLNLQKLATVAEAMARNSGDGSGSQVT
T1 sequence (Q9CAJ0 1-511 partner): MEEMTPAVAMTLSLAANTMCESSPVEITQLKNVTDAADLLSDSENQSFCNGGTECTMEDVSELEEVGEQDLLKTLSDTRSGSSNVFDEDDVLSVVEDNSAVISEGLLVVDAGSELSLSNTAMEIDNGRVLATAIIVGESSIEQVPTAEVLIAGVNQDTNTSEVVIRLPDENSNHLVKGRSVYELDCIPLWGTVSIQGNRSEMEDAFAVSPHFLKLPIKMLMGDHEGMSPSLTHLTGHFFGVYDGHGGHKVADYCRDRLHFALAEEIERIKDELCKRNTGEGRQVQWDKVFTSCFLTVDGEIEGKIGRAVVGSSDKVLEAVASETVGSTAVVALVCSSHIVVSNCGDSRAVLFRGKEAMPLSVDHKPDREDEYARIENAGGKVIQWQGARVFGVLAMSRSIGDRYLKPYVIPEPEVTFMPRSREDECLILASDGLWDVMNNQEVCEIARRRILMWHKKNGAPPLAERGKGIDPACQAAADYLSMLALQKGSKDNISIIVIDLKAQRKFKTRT

His-PYR1 with GST-ABI1 = target: T2, His-PYR1 with GST-ABI1 (Arabidopsis thaliana, UniProt O49686); assay: in vitro reconstitution, radiometric kinase assay; assay type: biochemical
T2 sequence (O49686 1-191): T1 sequence (O49686 1-191)
T2 sequence (P49597 1-434 partner): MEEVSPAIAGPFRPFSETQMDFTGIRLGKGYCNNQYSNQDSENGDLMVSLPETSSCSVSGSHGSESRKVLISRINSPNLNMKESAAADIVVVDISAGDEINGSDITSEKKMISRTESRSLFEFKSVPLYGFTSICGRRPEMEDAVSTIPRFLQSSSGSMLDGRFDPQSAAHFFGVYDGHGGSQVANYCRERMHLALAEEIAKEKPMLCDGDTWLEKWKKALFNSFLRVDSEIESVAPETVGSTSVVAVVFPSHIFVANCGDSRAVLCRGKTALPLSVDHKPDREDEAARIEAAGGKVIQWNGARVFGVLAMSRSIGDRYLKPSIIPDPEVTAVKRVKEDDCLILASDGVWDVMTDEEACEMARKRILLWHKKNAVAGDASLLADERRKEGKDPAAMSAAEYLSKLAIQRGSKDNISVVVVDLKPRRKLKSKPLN

pEC50 (His-PYR1 with GST-ABI1): 6.10
Structure (SMILES): CC1=CC(=O)CC(C)(C)C1(O)/C=C/C(C)=C\C(=O)O (stereo in doubt) [(+)-ABA]
in vitro reconstitution, radiometric kinase assay (His-PYR1 with GST-HAB1): reconstitution was also achieved when the PP2C protein HAB1 was used instead of ABI1
